According to ChEMBL document CHEMBL3392963, “Piperazine derivatives: synthesis, inhibition of the Mycobacterium tuberculosis enoyl-acyl carrier protein reductase and SAR studies” (Eur J Med Chem, 2015):
≈ marks a conversion by molar mass, not a printed value. Calls of active or inactive are those of the source. No cut-off for these calls is given here.

Key:
[1] = biological target: T1, Enoyl-[acyl-carrier-protein] reductase [NADH] (Mycobacterium tuberculosis, UniProt P9WGR1); assay: Inhibition of Mycobacterium tuberculosis recombinant InhA assessed as NADH oxidation to NAD+ using 2-trans-dodecenoyl-CoA substrate by UV/visible spectrophotometry
T1 sequence (P9WGR1 whole entry): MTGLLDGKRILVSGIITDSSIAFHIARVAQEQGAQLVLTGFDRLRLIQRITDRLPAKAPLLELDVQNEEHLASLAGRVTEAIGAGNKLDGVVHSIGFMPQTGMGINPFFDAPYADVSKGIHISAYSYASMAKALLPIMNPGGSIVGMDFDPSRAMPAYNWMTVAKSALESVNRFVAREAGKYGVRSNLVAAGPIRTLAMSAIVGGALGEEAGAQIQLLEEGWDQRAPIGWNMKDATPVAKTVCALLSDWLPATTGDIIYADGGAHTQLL

[2] = system: Mycobacterium tuberculosis; assay: Antimycobacterial activity against Mycobacterium tuberculosis H37Rv assessed as inhibition of mycobacterial growth after 7 days by REMA method; conditions: 168 h
[3] = biological target: T2, Enoyl-[acyl-carrier-protein] reductase [NADH] (Mycobacterium tuberculosis) (UniProt P9WGR1)
T2 sequence (whole entry): T1 sequence (P9WGR1 whole entry)
Description: Non-competitive inhibition of Mycobacterium tuberculosis recombinant InhA assessed as inhibitory dissociation constant for the enzyme-substrate-inhibitor complex by measuring NADH oxidation to NAD+ using varying 2-trans-dodecenoyl-CoA substrate and fixed NADH levels by UV/visible spectrophotometry

[4] = biological target: T2, Enoyl-[acyl-carrier-protein] reductase [NADH] (Mycobacterium tuberculosis); remark: listed apart in the source
Description: Non-competitive inhibition of Mycobacterium tuberculosis recombinant InhA assessed as inhibitory dissociation constant for the enzyme-inhibitor complex by measuring NADH oxidation to NAD+ using varying 2-trans-dodecenoyl-CoA substrate and fixed NADH levels by UV/visible spectrophotometry

[5] = biological target: T2, Enoyl-[acyl-carrier-protein] reductase [NADH] (Mycobacterium tuberculosis); remark: listed apart in the source
Description: Inhibition of Mycobacterium tuberculosis recombinant InhA assessed as NADH oxidation to NAD+ at 0.2 uM using 2-trans-dodecenoyl-CoA substrate measured up to 30 mins by UV/visible spectrophotometry

[6] = biological target: T2, Enoyl-[acyl-carrier-protein] reductase [NADH] (Mycobacterium tuberculosis); remark: listed apart in the source
Description: Uncompetitive inhibition of Mycobacterium tuberculosis recombinant InhA assessed as inhibitory dissociation constant for the enzyme-substrate-inhibitor complex by measuring NADH oxidation to NAD+ using fixed 2-trans-dodecenoyl-CoA substrate and varying NADH levels by UV/visible spectrophotometry

[7] = biological target: T2, Enoyl-[acyl-carrier-protein] reductase [NADH] (Mycobacterium tuberculosis); remark: listed apart in the source
Description: Competitive inhibition of Mycobacterium tuberculosis recombinant InhA assessed as inhibitory dissociation constant for the enzyme-inhibitor complex by measuring NADH oxidation to NAD+ using varying 2-trans-dodecenoyl-CoA substrate and fixed NADH levels by UV/visible spectrophotometry

O=C(/C=C/c1ccccc1)N1CCN(C2c3ccccc3-c3ccccc32)CC1
IC50 [1]: > 50 µM

O=C(c1ccc(F)cc1)N1CCN(C(c2ccccc2)c2ccccc2)CC1
IC50 [1]: > 50 µM

O=S(=O)(c1ccccc1)N1CCN(C(c2ccccc2)c2ccccc2)CC1
IC50 [1]: > 50 µM

c1ccc(CN2CCN(C3c4ccccc4-c4ccccc43)CC2)cc1
IC50 [1]: > 50 µM

Cc1ccc(C(=O)N2CCN(C3c4ccccc4-c4ccccc43)CC2)cc1
IC50 [1]: 0.222 µM | MIC [2]: 67.8 µM (≈ 25 µg/mL)

O=C(c1ccc(Cl)cc1)N1CCN(C2c3ccccc3-c3ccccc32)CC1
IC50 [1]: 1.69 µM | Kii [3]: 2 µM | Kis [4]: 2.77 µM | TDI [5]: inactive | Kii [6]: 1.12 µM

O=C(/C=C/c1ccccc1)N1CCN(C(c2ccccc2)c2ccccc2)CC1
IC50 [1]: > 50 µM

O=C(c1ccccc1F)N1CCN(C2c3ccccc3-c3ccccc32)CC1
IC50 [1]: 0.361 µM | Kii [3]: 0.66 µM | Kis [4]: 0.149 µM | TDI [5]: inactive | Kii [6]: 0.332 µM | MIC [2]: > 16.1 µM

Cc1ccccc1C(=O)N1CCN(C2c3ccccc3-c3ccccc32)CC1
IC50 [1]: 5.99 µM

O=C(c1ccc(F)cc1)N1CCN(C2c3ccccc3-c3ccccc32)CC1
IC50 [1]: 0.397 µM | TDI [5]: inactive | Kii [6]: 0.348 µM | MIC [2]: 67.8 µM (≈ 25.3 µg/mL) | Kis [7]: 0.338 µM

O=C(c1ccccc1)N1CCN(C(c2ccccc2)c2ccccc2)CC1
IC50 [1]: 16 µM

O=C(c1cc(F)ccc1F)N1CCN(C(c2ccccc2)c2ccccc2)CC1
IC50 [1]: > 50 µM

O=C(c1ccc(Cl)cc1)N1CCN(C(c2ccccc2)c2ccccc2)CC1
IC50 [1]: > 50 µM

O=S(=O)(c1ccccc1)N1CCN(C2c3ccccc3-c3ccccc32)CC1
IC50 [1]: 20 µM

O=C(c1ccncc1)N1CCN(C2c3ccccc3-c3ccccc32)CC1
IC50 [1]: 9.77 µM

O=C(c1cc(F)ccc1F)N1CCN(C2c3ccccc3-c3ccccc32)CC1
IC50 [1]: 1.57 µM | Kii [3]: 3.25 µM | Kis [4]: 0.788 µM | TDI [5]: inactive | Kii [6]: 1.28 µM | MIC [2]: > 15.3 µM

Cc1cccc(C(=O)N2CCN(C3c4ccccc4-c4ccccc43)CC2)c1
IC50 [1]: 0.25 µM | Kii [3]: 0.348 µM | Kis [4]: 0.162 µM | TDI [5]: inactive | Kii [6]: 0.185 µM | MIC [2]: > 16.2 µM

Cc1ccc(C(=O)N2CCN(C(c3ccccc3)c3ccccc3)CC2)cc1
IC50 [1]: 7.83 µM

O=C(c1ccccc1)N1CCN(C2c3ccccc3-c3ccccc32)CC1
IC50 [1]: 0.183 µM | MIC [2]: > 35.2 µM

O=C(c1cccc(F)c1)N1CCN(C2c3ccccc3-c3ccccc32)CC1
IC50 [1]: 0.24 µM | TDI [5]: inactive | Kii [6]: 0.147 µM | MIC [2]: > 16.1 µM | Kis [7]: 0.118 µM

COc1ccc(C(=O)N2CCN(C(c3ccccc3)c3ccccc3)CC2)cc1
IC50 [1]: > 50 µM

O=C(CN1CCN(C2c3ccccc3-c3ccccc32)CC1)Nc1ccccc1
IC50 [1]: > 50 µM

COc1ccc(C(=O)N2CCN(C3c4ccccc4-c4ccccc43)CC2)cc1
IC50 [1]: 2.9 µM | Kii [3]: 7.22 µM | Kis [4]: 1.6 µM | TDI [5]: inactive | Kii [6]: 1.95 µM

O=C(c1ccc([N+](=O)[O-])cc1)N1CCN(C2c3ccccc3-c3ccccc32)CC1
IC50 [1]: > 50 µM

Cc1ccccc1S(=O)(=O)N1CCN(C2c3ccccc3-c3ccccc32)CC1
IC50 [1]: > 50 µM
